Tests used:
FGF2 = target: T1, FGF2 (Homo sapiens, UniProt P09038); assay: HS tetrasaccharide microarray binding assay, FGF2; details: glycan microarray; for relative binding of FGF2: compound 50 μM, normalized to the compound with greatest binding
T1 construct: purchased Sino Biological
Protocol: (§1) Heparan sulfate tetrasaccharide microarray fabrication. HS oligosaccharides were dissolved in sodium phosphate buffer (pH 8.5, 50 mM) in 9 concentrations: 200 μM, 100 μM, 50 μM, 25 μM, 12.5 μM, 6.25 μM, 3.13 μM, 1.57 μM, 0.79 μM. The robotic arrayer SX (from Scienion, Berlin, Germany) delivered 414 pL of the solution containing oligosaccharides (9 spots per concentration) to the array slides using dispensing nozzle PDC80, P-2040, under ˜50% relative humidity at 20° C. […] The slides were incubated in a chamber with saturated (NH4)2SO4 solution (81% relative humidity) for 24 h at 20° C., and unreacted HS oligosaccharides were removed from the slides by rinsing with deionized water. The remaining N-hydroxysuccinimide (NHS) ester groups were blocked by placing slides in a solution containing 50 mM ethanolamine in PBST (137 mM NaCl, 13 mM Na2HPO4, 1.6 mM NaH2PO4, 2.7 mM KCl, 0.010% Tween-20) at 50° C. for 1.5 h. Slides were rinsed several times with deionized water, dried by centrifugation, and stored before use.
(§2) HS tetrasaccharide microarray binding assay and array slide processing. The slide was blocked with 10% BSA in TBST (4.0 mL) with gentle rocking at RT for 1 h, followed by submerging in TBST. This condition was empirically determined to reduce nonspecific binding of proteins to the microarray and to provide optimal signal-to-noise ratios. Next, 5.0 μL of the primary detection protein ([…], 0.50 μg/mL) solution was transferred to 2.5 mL of TBST w/1% BSA in a chamber and the slide was incubated with gentle shaking for 1 h at RT. The slide was then washed two times for 5 min each in TBST (4.0 mL) while gently rocking. After the washes, the slide was incubated with the appropriate biotinylated antibody ([…], 0.50 μg/mL) in 1% BSA in TBST solution (3.0 mL) with gentle rocking for 1 h. The slide was then washed two times for 5 min in TBST (5.0 mL) while gently rocking. Next, the slide was incubated with 4.0 mL of Alexa Fluor 647-conjugated streptavidin detection solution (1.0 μg/mL in TBST w/1% BSA) in the dark with gentle rocking for 1 h, washed with TBST (5.0 mL, two times) followed by PBS (45 mL, two times) and ddH2O (45 mL, two times), and then dried under a gentle stream of 0.2 micron-filtered air. For his-tagged FGF2, detection was accomplished with an AF647-labeled anti-his antibody. All incubations and washes were carried out at RT unless otherwise noted. The microarray was scanned and analyzed at 647 nm using an Agilent G2565CA Microarray Scanner, and fluorescence quantification was performed using ImageJ software with correction for local background. To ensure accurate signal quantification, the average signal intensity was calculated over a fixed area for all spots. Results were plotted with Prism 9 software at a single concentration as background corrected fluorescence values normalized to the compound with the highest signal. Bar graphs represent the mean±SD for each compound (50 μM) in nonuplicate. Each experiment was performed 2-3 times. Heat maps were generated in Excel with columns sorted by sulfation status of the amino positions and rows sorted by sulfation status of the 2-O- and 6-O-hydroxyl groups.

FGF4 = target: T2, FGF4 (Homo sapiens, UniProt P08620); assay: HS tetrasaccharide microarray binding assay, FGF4; details: glycan microarray, compound 50 μM, normalized to the compound with greatest binding
T2 construct: purchased Peprotech
T2 sequence (P08620 31-206): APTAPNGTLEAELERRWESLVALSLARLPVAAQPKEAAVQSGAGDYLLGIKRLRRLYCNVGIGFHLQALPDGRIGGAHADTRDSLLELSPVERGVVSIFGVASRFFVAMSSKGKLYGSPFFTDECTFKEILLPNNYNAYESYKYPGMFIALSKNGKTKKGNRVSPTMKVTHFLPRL
Protocol: as §1, §2

CXCL8 (interleukin-8) = target: T3, CXCL8 (interleukin-8) (Homo sapiens, UniProt P10145); assay: HS tetrasaccharide microarray binding assay, CXCL8; details: glycan microarray, compound 50 μM, normalized to the compound with greatest binding
T3 construct: recombinant human IL-8 (CXCL8) (77 a.a.) (>95% purity); purchased Peprotech
T3 sequence (P10145 23-99 limits assumed): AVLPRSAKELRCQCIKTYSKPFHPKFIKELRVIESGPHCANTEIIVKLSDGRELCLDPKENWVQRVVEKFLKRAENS
Protocol: as §1, §2

T1 sequence (P09038 143-288): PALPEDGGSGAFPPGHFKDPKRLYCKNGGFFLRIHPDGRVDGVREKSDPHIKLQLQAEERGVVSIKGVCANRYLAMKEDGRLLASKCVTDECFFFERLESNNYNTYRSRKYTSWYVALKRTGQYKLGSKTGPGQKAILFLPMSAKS

Substance	relative binding of FGF2 (FGF2)	relative binding of FGF4 (FGF4)	FGF2 binding (in words) (FGF2)	relative binding of CXCL8 (CXCL8 (interleukin-8))
GlcNAc6S-IdoA2S-GlcNAc6S-IdoA2S-R [Compound 61]	2%			
GlcNAc6S-IdoA2S-GlcNS6S-IdoA2S-R [Compound 62]	28%	27%		
GlcNAc6S-IdoA2S-GlcNS6S-IdoA-R [Compound 58]		10%	abolished FGF2 binding	
GlcNAc6S-IdoA2S-GlcNS-IdoA-R [Compound 42]			abolished FGF2 binding	
GlcNAc-IdoA2S-GlcNS6S-IdoA2S-R [Compound 46]		32%		47%
GlcNAc-IdoA2S-GlcNS6S-IdoA-R [Compound 34]			abolished FGF2 binding	
GlcNAc-IdoA2S-GlcNS-IdoA2S-R [Compound 26]				43%
GlcNAc-IdoA2S-GlcNS-IdoA-R [Compound 14]			abolished FGF2 binding	
GlcNS6S-IdoA2S-GlcNAc6S-IdoA2S-R [Compound 63]	70%	100%		75%
GlcNS6S-IdoA2S-GlcNAc6S-IdoA-R [Compound 59]		83%		53%
GlcNS6S-IdoA2S-GlcNAc-IdoA2S-R [Compound 55]		43%		
GlcNS6S-IdoA2S-GlcNAc-IdoA-R [Compound 43]		16%		
GlcNS6S-IdoA2S-GlcNS6S-IdoA2S-R [Compound 64]	100%	81%		
GlcNS6S-IdoA2S-GlcNS6S-IdoA-R [Compound 60]	39%	38%		43%
GlcNS6S-IdoA2S-GlcNS-IdoA2S-R [Compound 56]	63%	56%		
GlcNS6S-IdoA-GlcNAc6S-IdoA2S-R [Compound 51]	3%	67%	abolished FGF2 binding	47%

Substance	relative binding of FGF2 (FGF2)	relative binding of FGF4 (FGF4)	FGF2 binding (in words) (FGF2)	relative binding of CXCL8 (CXCL8 (interleukin-8))
GlcNS6S-IdoA-GlcNAc6S-IdoA-R [Compound 39]	2%	43%		17%
GlcNS6S-IdoA-GlcNAc-IdoA2S-R [Compound 31]			abolished FGF2 binding	
GlcNS6S-IdoA-GlcNS6S-IdoA2S-R [Compound 52]	45%			43%
GlcNS6S-IdoA-GlcNS6S-IdoA-R [Compound 40]	3%	52%		
GlcNS-IdoA2S-GlcNAc6S-IdoA2S-R [Compound 47]		95%		100%
GlcNS-IdoA2S-GlcNAc6S-IdoA-R [Compound 35]	38%	44%		33%
GlcNS-IdoA2S-GlcNAc-IdoA2S-R [Compound 27]		35%		25%
GlcNS-IdoA2S-GlcNAc-IdoA-R [Compound 15]		16%		
GlcNS-IdoA2S-GlcNS6S-IdoA2S-R [Compound 48]	77%	49%		61%
GlcNS-IdoA2S-GlcNS6S-IdoA-R [Compound 36]				49%
GlcNS-IdoA2S-GlcNS-IdoA2S-R [Compound 28]		42%		63%
GlcNS-IdoA-GlcNAc6S-IdoA2S-R [Compound 23]	2%		abolished FGF2 binding	29%
GlcNS-IdoA-GlcNAc6S-IdoA-R [Compound 11]	0.7%			3.3%
GlcNS-IdoA-GlcNAc-IdoA2S-R [Compound 7]			abolished FGF2 binding	
GlcNS-IdoA-GlcNS6S-IdoA2S-R [Compound 24]				63%

From patent publication US20250281523A1, “SULFATED GLYCOSAMINOGLYCAN COMPOUNDS, METHODS, AND USES THEREOF” (California Institute of Technology, priority 2024, published 2025)
